Measured values: patent US20050182025A1, “Amidinylphenyl compounds and their use as fungicides” (priority 2002, published 2005)

How the values were obtained:
Type in all cases: in vivo
[1] = tested on: Erysiphe graminis f. sp. tritici; experiment: Test A: preventive spray on wheat seedlings, wheat powdery mildew, disease rating; details: wheat seedlings sprayed to run-off, inoculated the following day with Erysiphe graminis f. sp. tritici, rated after 7 days at 20° C.; test concentration not given
Summary of the method: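 Wheat seedlings sprayed to run-off with compound suspension (200 ppm ≈ 500 g/ha) in acetone/water with surfactant, inoculated next day with Erysiphe graminis f. sp. tritici spores. After 7 days at 20 °C, disease rated 0–100 as % control relative to untreated plants.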

[2] = tested on: Puccinia recondita; experiment: Test B: preventive spray on wheat seedlings, wheat leaf rust, disease rating; details: wheat seedlings sprayed to run-off, inoculated the following day with Puccinia recondita, 24 h saturated atmosphere then 6 days at 20° C.; test concentration not given
Summary of the method: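 Compound suspended in acetone/water (50/50) with 250 ppm Trem 014 surfactant, sprayed to run-off on wheat seedlings (200 ppm ≈ 500 g/ha); P. recondita spores inoculated next day. Plants held 24 h saturated at 20° C, then 6 days at 20° C; disease rated as % control relative to untreated (100 = full control).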

[3] = tested on: Septoria nodorum; experiment: Test C: preventive spray on wheat seedlings, Septoria glume blotch, disease rating; details: wheat seedlings sprayed to run-off, inoculated the following day with Septoria nodorum, 48 h saturated atmosphere then 9 days at 20° C.; test concentration not given
Summary of the method: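 Wheat seedlings were sprayed to run-off with compound suspensions in acetone/water containing 250 ppm Trem 014 (200 ppm equals 500 g/ha), then inoculated with Septoria nodorum spores next day. Plants were held 48 h saturated at 20° C., then 9 days at 20° C. Disease control was rated 0–100 relative to controls.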

| SMILES | Test A disease control rating (100 = 100% disease control, 0 = no disease control relative to the controls) [1] [%] | Test B disease control rating (100 = 100% disease control, 0 = no disease control relative to the controls) [2] [%] | Test C disease control rating (100 = 100% disease control, 0 = no disease control relative to the controls) [3] [%] |
| --- | --- | --- | --- |
| Cc1cc(NC(=S)N(C)C)c(C)c(Cl)c1OCCCC(C)C [compound 136] | 95 | 91 | 84 |
| CC(=Nc1cc(C)c(OCCC(C)CC(C)(C)C)cc1C)N(C)C (stereo not drawn) [compound 98] | 0 | 60 | 94 |
| Cc1cc(OC(CCC(C)C)CCC(C)C)c(C)cc1N=CN(C)C [Compound 35] | 95 | 100 | 100 |
| CCN(C)C(=S)Nc1cc(C)c(OCCC[Si](C)(C)CC)cc1C [compound 77] | 100 | 100 | 100 |
| Cc1cc(OCCC[Si](C)(C)C)c(Cl)cc1NC(=S)N(C)C [compound 168] | 99 | 100 | 100 |
| CCN(C)C(=S)Nc1cc(C(C)C)c(OCCC[Si](C)(C)C)cc1C [compound 94] | 99 | 100 | 100 |
| C=C(C)CC(CC)Sc1cc(C)c(N=CN(C)C)cc1C (stereo not drawn) [compound 161] | 72 | 100 | 53 |
| Cc1cc(OCCCO[Si](C)(C)C(C)(C)C)c(C)cc1N=CN(C)C [Compound 27] | 99 | 100 | 100 |
| Cc1cc(NCCC(C)CC(C)(C)C)c(C)cc1N=CN(C)C (stereo not drawn) [compound 147] | 0 | 0 | 53 |
| CN(C)C(=S)Nc1cc(Cl)c(OCCCC(C)(C)C)cc1Cl [compound 186] | 94 | 9 | 0 |
| Cc1cc(OCCOC(C)(C)C)c(C)cc1NC(=S)N(C)C [compound 165] | 0 | 28 | 0 |
| CC[Si](C)(C)CCCOc1cc(C)c(N=CN(C)C)cc1C [Compound 51] | 96 | 100 | 100 |
| COC(=O)C(=Nc1cc(Cl)c(OCCC[Si](C)(C)C)cc1C)N(C)C [compound 130] | 100 | 97 | 0 |
| CC(C)=CCC[C@H](C)CCOc1cc(C)c(N=CN(C)C)cc1C [Compound 14] | 90 | 100 | 0 |
| CC(=Nc1cc(Cl)c(OCCC[Si](C)(C)C)cc1C)N(C)C [compound 173] | 32 | 90 | 99 |
| CCCCN(C)C=Nc1cc(F)c(OCCC[Si](C)(C)C)cc1C [compound 62] | 100 | 100 | 100 |

| SMILES | Test A disease control rating (100 = 100% disease control, 0 = no disease control relative to the controls) [1] [%] | Test B disease control rating (100 = 100% disease control, 0 = no disease control relative to the controls) [2] [%] | Test C disease control rating (100 = 100% disease control, 0 = no disease control relative to the controls) [3] [%] |
| --- | --- | --- | --- |
| C=CCN(C)C(=S)Nc1cc(Cl)c(OCCC[Si](C)(C)C)c(Cl)c1Cl [compound 83] | 0 | 9 | 0 |
| CCCCC(CCCC)Sc1cc(C)c(N=CN(C)C)cc1C [compound 155] | 0 | 23 | 95 |
| CCN(C)C=Nc1cc(F)c(OCCC[Si](C)(C)C)cc1C [compound 59] | 100 | 100 | 100 |
| CCN(C)C(=S)Nc1cc(C)c(OCCCC(C)C)c(Cl)c1C [compound 137] | 100 | 100 | 84 |
| CCN(CC)C(=S)Nc1cc(Cl)c(OCCCC(C)C)cc1C [compound 113] | 91 | 99 | 100 |
| CC(C)=CCCC(C)=CCCC(C)=CCOc1cc(C)c(N=CN(C)C)cc1C [Compound 3] | 0 | 87 | 0 |
| CCCCCCOc1cc(C)c(N=CN(C)C)cc1C [Compound 20] | 96 | 100 | 99 |
| CCN(C)C=Nc1cc(C)c(OCCCC(C)C)c(Cl)c1C [compound 200] | 100 | 100 | 100 |
| Cc1c(NC(=S)N(C)C)cc(Cl)c(OCCCC(C)C)c1Cl [compound 119] | 0 | 64 | 78 |
| CCN(CC)C(=S)Nc1cc(C)c(OCCCC(C)(C)C)cc1C [compound 191] | 63 | 99 | 91 |
| CC(=Nc1cc(Cl)c(OCCCC(C)C)cc1C)N(C)C [compound 111] | 99 | 100 | 100 |
| Cc1cc(SC(CCC(C)C)CCC(C)C)c(C)cc1N=CN(C)C [compound 159] | 94 | 100 | 47 |
| CCN(CC)C(=S)Nc1cc(C)c(OCCC[Si](C)(C)C)cc1C [compound 163] | 32 | 100 | 73 |
| CCN(C)C=Nc1cc(Cl)c(OCCC[Si](C)(C)C)cc1C [compound 54] | 100 | 100 | 100 |
| CCN(C)C=Nc1cc(C)c(OCCCC(C)(C)C)c(Cl)c1C [compound 201] | 100 | 100 | 100 |
| C=CCN(C)C(=S)Nc1cc(C)c(OCCC[Si](C)(C)C)cc1C [compound 86] | 100 | 99 | 100 |
